Reference: patent publication US20240067693A1, “POLYPEPTIDES AND USES THEREOF” (MEDIMMUNE LIMITED, priority 2020, published 2024)
Numbered stars: 1 amine (or outer) side, 2 acyl side, 3 side chain; on linkers, the order of the positions; unused ones are H or OH. Bridge positions count the residues as written; N and C are the ends. Square brackets hold non-standard residues; d marks the D form. Side chains are listed from the residue outwards. Peptide text beside a SMILES is read from it. * marks the point of attachment. C20 diacid = O=C(O)CCCCCCCCCCCCCCCCCCC(=O)*; C18 diacid = O=C(O)CCCCCCCCCCCCCCCCC(=O)*; γGlu = O=C(O)[C@H](CCC(=O)[*:2])N[*:1]; Hyp = O=C(O)[C@@H]1C[C@@H](O)CN1; Dab = NCC[C@H](N)C(=O)O; Aib = CC(C)(N)C(=O)O

What was measured:
[1] = biological target: T1, human calcitonin receptor (hCTR) (Homo sapiens, UniProt P30988); assay: cAMP production in 1321N1 cells with stable recombinant expression of human calcitonin receptor (hCTR); type: cell-based; details: cAMP, 1321N1 cells, assay buffer with 0.1% BSA; read-out: EC50 (pM) hCTR
T1 construct: expressed in transfected cells
T1 sequence (P30988 25-474): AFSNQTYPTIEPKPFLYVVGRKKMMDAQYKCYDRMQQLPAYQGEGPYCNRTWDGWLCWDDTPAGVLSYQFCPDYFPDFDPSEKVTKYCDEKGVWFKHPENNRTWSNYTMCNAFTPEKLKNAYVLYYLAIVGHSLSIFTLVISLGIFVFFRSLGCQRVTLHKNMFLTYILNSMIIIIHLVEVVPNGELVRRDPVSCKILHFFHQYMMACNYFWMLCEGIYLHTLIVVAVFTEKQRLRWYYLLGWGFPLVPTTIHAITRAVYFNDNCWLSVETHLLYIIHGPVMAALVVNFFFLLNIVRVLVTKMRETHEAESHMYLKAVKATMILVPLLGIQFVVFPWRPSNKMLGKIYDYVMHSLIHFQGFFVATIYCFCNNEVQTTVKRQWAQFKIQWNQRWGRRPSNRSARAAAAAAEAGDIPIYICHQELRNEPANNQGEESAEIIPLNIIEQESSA
Method in brief: (§1)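 EC50 values come from 4-parameter logistic fits of HTRF cAMP signal, normalised to maximal calcitonin or amylin effect. Peptides were tested in duplicate for 30 min at RT in IBMX-containing (0.5 mM) BSA/HEPES buffer pH 7.4 on stable 1321N1 (human CTR, AMYR3) or HEK (rat CTR, AMYR3) lines.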

[2] = biological target: T2, human amylin receptor (calcitonin receptor co-expressed with receptor activity modifying protein, RAMP3) (hAMYR3) (Homo sapiens, UniProt O60896+P30988); assay: cAMP production in 1321N1 cells with stable recombinant expression of human amylin receptor (hAMYR3); type: cell-based; details: for Ratio (selectivity hAMYR vs hCTR, ratio of EC50 values at the two receptors): EC50 hCTR / EC50 hAMYR3; for EC50: cAMP, 1321N1 cells, assay buffer with 0.1% BSA, read-out: EC50 (pM) hAMYR3
T2 construct: expressed in transfected cells
T2 sequence (P30988 25-474): T1 sequence (P30988 25-474)
T2 sequence (O60896 24-148 partner): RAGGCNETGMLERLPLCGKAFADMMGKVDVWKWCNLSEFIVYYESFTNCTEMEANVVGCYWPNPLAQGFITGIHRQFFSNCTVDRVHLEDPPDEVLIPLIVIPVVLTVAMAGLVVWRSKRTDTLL
Method in brief: as §1

EC50 [1] [pM]	Ratio (selectivity hAMYR vs hCTR, ratio of EC50 values at the two receptors) [2]	EC50 [2] [pM]	Compound
34700	24	1460	CC[C@H](C)[C@H](NC(=O)[C@H](C)NC(=O)[C@@H]1CCCN1C(=O)[C@H](Cc1ccccc1)NC(=O)[C@H](CC(N)=O)NC(=O)[C@@H]1CCCN1C(=O)[C@@H]1CCCN1C(=O)[C@H](CO)NC(=O)[C@H](Cc1c[nH]cn1)NC(=O)[C@@H](NC(=O)[C@H](CC(C)C)NC(=O)[C@H](Cc1ccccc1)NC(=O)[C@H](CC(N)=O)NC(=O)[C@H](C)NC(=O)[C@H](CC(C)C)NC(=O)[C@H](CCCNC(=N)N)NC(=O)[C@H](CCC(N)=O)NC(=O)[C@@H](NC(=O)[C@H](C)NC(=O)[C@@H]1CSSC[C@H](NC(=O)[C@@H](N)CCCCNC(=O)CC[C@H](NC(=O)CC[C@H](NC(=O)CCCCCCCCCCCCCCCCCCC(=O)O)C(=O)O)C(=O)O)C(=O)N[C@@H](CC(N)=O)C(=O)N[C@@H]([C@@H](C)O)C(=O)N[C@@H](C)C(=O)N[C@@H]([C@@H](C)O)C(=O)N1)[C@@H](C)O)C(C)C)C(=O)N[C@@H](CC(C)C)C(=O)N[C@@H](CO)C(=O)N1CCC[C@H]1C(=O)N[C@H](C(=O)N[C@@H](CC(N)=O)C(=O)N[C@H](C(=O)NCC(=O)N[C@@H](CO)C(=O)N[C@@H](CC(N)=O)C(=O)N[C@H](C(=O)N[C@@H](Cc1ccc(O)cc1)C(N)=O)[C@@H](C)O)C(C)C)[C@@H](C)O [Peptide 119] (H-K([γGlu-γGlu-C20 diacid])CNTATCATQRLANFLVHSPPNFPAILSPTNVGSNTY-NH2; disulfide 2-7; N-terminus assumed)
6070	5	1330	CC[C@H](C)[C@H](NC(=O)[C@H](C)NC(=O)[C@@H]1C[C@@H](O)CN1C(=O)[C@H](Cc1ccccc1)NC(=O)[C@H](CC(N)=O)NC(=O)C(C)(C)NC(=O)[C@H](CO)NC(=O)[C@H](CO)NC(=O)[C@H](Cc1c[nH]cn1)NC(=O)[C@@H](NC(=O)[C@H](CC(C)C)NC(=O)[C@H](Cc1ccccc1)NC(=O)[C@H](CC(N)=O)NC(=O)[C@H](C)NC(=O)[C@H](CC(C)C)NC(=O)[C@H](CCCNC(=N)N)NC(=O)[C@H](CCC(N)=O)NC(=O)[C@@H](NC(=O)[C@H](C)NC(=O)[C@@H]1CSSC[C@H](NC(=O)[C@@H](N)CCCCNC(=O)CC[C@H](NC(=O)CC[C@H](NC(=O)CCCCCCCCCCCCCCCCCCC(=O)O)C(=O)O)C(=O)O)C(=O)N[C@@H](CC(N)=O)C(=O)N[C@@H]([C@@H](C)O)C(=O)N[C@@H](C)C(=O)N[C@@H]([C@@H](C)O)C(=O)N1)[C@@H](C)O)C(C)C)C(=O)N[C@@H](CC(C)C)C(=O)N[C@@H](CO)C(=O)N1CCC[C@H]1C(=O)N[C@H](C(=O)N[C@@H](CC(N)=O)C(=O)N[C@H](C(=O)NCC(=O)N[C@@H](CO)C(=O)N[C@@H](CC(N)=O)C(=O)N[C@H](C(=O)N[C@@H](Cc1ccc(O)cc1)C(N)=O)[C@@H](C)O)C(C)C)[C@@H](C)O [Peptide 121, K(γE-γE-C20diacid)[CNTATC]ATQRLANFLVHSS(Aib)NF(Hyp)AILSPTNVGSNTY-amide] (H-K([γGlu-γGlu-C20 diacid])CNTATCATQRLANFLVHSS[Aib]NF[Hyp]AILSPTNVGSNTY-NH2; disulfide 2-7; N-terminus assumed)
6180	9	655	CC[C@H](C)[C@H](NC(=O)[C@H](C)NC(=O)[C@@H]1CCCN1C(=O)[C@H](Cc1ccccc1)NC(=O)[C@H](CC(N)=O)NC(=O)C(C)(C)NC(=O)[C@H](CO)NC(=O)[C@H](CO)NC(=O)[C@H](Cc1c[nH]cn1)NC(=O)[C@@H](NC(=O)[C@H](CC(C)C)NC(=O)[C@H](Cc1ccccc1)NC(=O)[C@H](CC(N)=O)NC(=O)[C@H](C)NC(=O)[C@H](CC(C)C)NC(=O)[C@H](CCCNC(=N)N)NC(=O)[C@H](CCC(N)=O)NC(=O)[C@@H](NC(=O)[C@H](C)NC(=O)[C@@H]1CSSC[C@H](NC(=O)[C@@H](N)CCCCNC(=O)CC[C@H](NC(=O)CC[C@H](NC(=O)CCCCCCCCCCCCCCCCC(=O)O)C(=O)O)C(=O)O)C(=O)N[C@@H](CC(N)=O)C(=O)N[C@@H]([C@@H](C)O)C(=O)N[C@@H](C)C(=O)N[C@@H]([C@@H](C)O)C(=O)N1)[C@@H](C)O)C(C)C)C(=O)N[C@@H](CC(C)C)C(=O)N[C@@H](CO)C(=O)N1CCC[C@H]1C(=O)N[C@H](C(=O)N[C@@H](CCN)C(=O)N[C@H](C(=O)NCC(=O)N[C@@H](CO)C(=O)N[C@@H](CC(N)=O)C(=O)N[C@H](C(=O)N[C@@H](Cc1ccc(O)cc1)C(N)=O)[C@@H](C)O)C(C)C)[C@@H](C)O [Peptide 122, K(γE-γE-C18diacid)[CNTATC]ATQRLANFLVHSS(Aib)NFPAILSPT(Dab)VGSNTY-amide] (H-K([γGlu-γGlu-C18 diacid])CNTATCATQRLANFLVHSS[Aib]NFPAILSPT[Dab]VGSNTY-NH2; disulfide 2-7)
4790	5	873	CC[C@H](C)[C@H](NC(=O)[C@H](C)NC(=O)[C@@H]1CCCN1C(=O)[C@H](Cc1ccccc1)NC(=O)[C@H](CC(N)=O)NC(=O)C(C)(C)NC(=O)[C@H](CO)NC(=O)[C@H](CO)NC(=O)[C@H](Cc1c[nH]cn1)NC(=O)[C@@H](NC(=O)[C@H](CC(C)C)NC(=O)[C@H](Cc1ccccc1)NC(=O)[C@H](CC(N)=O)NC(=O)[C@H](C)NC(=O)[C@H](CC(C)C)NC(=O)[C@H](CCCNC(=N)N)NC(=O)[C@H](CCC(N)=O)NC(=O)[C@@H](NC(=O)[C@H](C)NC(=O)[C@@H]1CSSC[C@H](NC(=O)[C@@H](N)CCCCNC(=O)CC[C@H](NC(=O)CC[C@H](NC(=O)CCCCCCCCCCCCCCCCCCC(=O)O)C(=O)O)C(=O)O)C(=O)N[C@@H](CC(N)=O)C(=O)N[C@@H]([C@@H](C)O)C(=O)N[C@@H](C)C(=O)N[C@@H]([C@@H](C)O)C(=O)N1)[C@@H](C)O)C(C)C)C(=O)N[C@@H](CC(C)C)C(=O)N[C@@H](CO)C(=O)N1CCC[C@H]1C(=O)N[C@H](C(=O)N[C@@H](CCN)C(=O)N[C@H](C(=O)NCC(=O)N[C@@H](CO)C(=O)N[C@@H](CC(N)=O)C(=O)N[C@H](C(=O)N[C@@H](Cc1ccc(O)cc1)C(N)=O)[C@@H](C)O)C(C)C)[C@@H](C)O [Peptide 123, K(γE-γE-C20diacid)[CNTATC]ATQRLANFLVHSS(Aib)NFPAILSPT(Dab)VGSNTY-amide] (H-K([γGlu-γGlu-C20 diacid])CNTATCATQRLANFLVHSS[Aib]NFPAILSPT[Dab]VGSNTY-NH2; disulfide 2-7; N-terminus assumed)
6630	6	1130	CC[C@H](C)[C@H](NC(=O)[C@H](C)NC(=O)[C@@H]1CCCN1C(=O)[C@H](Cc1ccccc1)NC(=O)[C@H](CC(N)=O)NC(=O)C(C)(C)NC(=O)[C@H](CO)NC(=O)[C@H](CO)NC(=O)[C@H](Cc1c[nH]cn1)NC(=O)[C@@H](NC(=O)[C@H](CC(C)C)NC(=O)[C@H](Cc1ccccc1)NC(=O)[C@H](CC(N)=O)NC(=O)[C@H](C)NC(=O)[C@H](CC(C)C)NC(=O)[C@H](CCCNC(=N)N)NC(=O)[C@H](CCC(N)=O)NC(=O)[C@@H](NC(=O)[C@H](C)NC(=O)[C@@H]1CSSC[C@H](NC(=O)[C@@H](N)CCCCNC(=O)CC[C@H](NC(=O)CC[C@H](NC(=O)CCCCCCCCCCCCCCCCC(=O)O)C(=O)O)C(=O)O)C(=O)N[C@@H](CC(N)=O)C(=O)N[C@@H]([C@@H](C)O)C(=O)N[C@@H](C)C(=O)N[C@@H]([C@@H](C)O)C(=O)N1)[C@@H](C)O)C(C)C)C(=O)N[C@@H](CC(C)C)C(=O)N[C@@H](CO)C(=O)N1CCC[C@H]1C(=O)N[C@H](C(=O)N[C@@H](CC(N)=O)C(=O)N[C@H](C(=O)NCC(=O)N[C@@H](CO)C(=O)N[C@@H](CCN)C(=O)N[C@H](C(=O)N[C@@H](Cc1ccc(O)cc1)C(N)=O)[C@@H](C)O)C(C)C)[C@@H](C)O [Peptide 124, K(γE-γE-C18diacid)[CNTATC]ATQRLANFLVHSS(Aib)NFPAILSPTNVGS(Dab)TY-amide] (H-K([γGlu-γGlu-C18 diacid])CNTATCATQRLANFLVHSS[Aib]NFPAILSPTNVGS[Dab]TY-NH2; disulfide 2-7; N-terminus assumed)
